According to paper PMC8113459, “Selective inhibition of cullin 3 neddylation through covalent targeting DCN1 protects mice from acetaminophen-induced liver toxicity” (Nature Communications, 2021):
“And” between values parts separate entries of the source, which are not always exact repeats. Equal values may be shown once. Read-outs that look alike come from different tables or passages of the source.

Legend:
[1] = test system: neddylation of cullin 1, 2, 4A, 4B, and 5; experiment: Western blot, neddylation of other cullin members; type: cell-based, human
Protocol: (§1) Western blotting was performed as described previously. Treated cells were lysed by RIPA buffer supplemented with protease inhibitor. The expression level of indicated proteins was examined by immunoblotting analysis and GAPDH was used as the loading control. Antibodies were purchased commercially: cullin 1 (sc-17775, 1:500 dilution) and cullin 2 (sc-166506, 1:500 dilution) from Santa Cruz Biotech (Santa Cruz, CA); cullin 4A (PA5-14542, 1:1000 dilution), cullin 4B (PA5-50647, 1:1000 dilution), and DCN3 (DCUN1D3, PA5-44000, 1:1000 dilution) from Thermo Fisher Scientific (Wayne, MI); cullin 3 (2759, 1:1000), NRF2 (12721, 1:1000 dilution), HO-1 (70081, 1:1000 dilution), and Bim (2819, 1:1000 dilution) from Cell Signaling Technology (Boston, MA); DCN1 (GWB-E3D700, 1:1000 dilution) from GenWay Biotech (San Diego, CA); and cullin 5 (A302-173A, 1:500 dilution) from Bethyl Labs (Montgomery, TX). Results are representative of two independent experiments.

[2] = test system: p21, BIM and CDT1 proteins; experiment: Western blot, CRL1 and CRL4A substrates; type: cell-based, human; settings: concentrations up to 1000 nM
Protocol: as §1

[3] = Pharmacokinetics: concentrations in mouse plasma and liver; type: in vivo; settings: for concentration at 1 h / concentration at 3 h / concentration at 6 h / concentration at 24 h: male, C57BL/6, mouse, ip
Protocol: Supplementary Table 2A. Concentrations of DI-1548 in mouse Plasma and liver after the C57BL/6 male mice were treated with a single dose of DI-1548 at 25 mg/kg via intraperitoneal (IP) injection. BLQ: below the limit of quantification.
Time point (h) Plasma (ng /mL) Liver (ng /g)
Supplementary Table 2B. Concentrations of DI-1859 in mouse Plasma and liver after the C57BL/6 male mice were treated with a single dose of DI-1859 at 25 mg/kg via intraperitoneal (IP) injection. BLQ:
Time point (h) Pl asma (ng /mL) Liver (ng /g) […]

[4] = C57BL/6 male mice, 25 mg/kg IP, 6 h
[5] = C57BL/6 male mice, 25 mg/kg IP, 24 h

## C=C(CN1CCOCC1)C(=O)NC[C@@H](NC(=O)[C@H](Cc1nc2ccc(C(C)C)cc2s1)NC(=O)CC)C1CCCCC1 [DI-1548]
[1]; U2OS, treatment time up to 48 h
  effect on the neddylation of cullin 1: no effect
[1]; a number of cell lines
  selectivity in inhibition of the neddylation of cullin 3 over other cullin members: > 1000 fold and 1000 fold
[1]; concentrations up to 1000 nM
  effect on the neddylation of cullin 1, 2, 4A, 4B, and 5: no obvious effect
[2]
  effect on the levels of p21, BIM and CDT1 proteins: no effect
[3]; 25 mg/kg IP
  time by which the compounds were cleared from systemic circulation: < 3 h
[3]; C57BL/6 male mice, 25 mg/kg IP, 3 h
  Liver concentration: BLQ
[3]; [4]
  Liver concentration: BLQ
  Plasma concentration: BLQ
[3]; [5]
  Liver concentration: BLQ
  Plasma concentration: BLQ
[3]; liver, 25 mg/kg, C57BL/6 male mice, 25 mg/kg IP, 1 h, read-out: Liver concentration
  concentration at 1 h: 783 ± 336 ng/g
[3]; liver, 25 mg/kg, mouse liver, IP 25mg/kg, 1h, mean of 3 mice, read-out: Concentration in mouse liver, MEAN
  concentration at 1 h: 783 ng/g
[3]; liver, 25 mg/kg, mouse liver, IP 25mg/kg, 3h, mean of 3 mice, read-out: Concentration in mouse liver, MEAN
  concentration at 3 h: 3.32 ng/g
[3]; liver, 25 mg/kg, mouse liver, IP 25mg/kg, 3h, single animals, read-out: Concentration in mouse liver, individual mice 1, 2, 3
  concentration at 3 h: 3.8 ng/g
[3]; liver, 25 mg/kg, mouse liver, IP 25mg/kg, 6h, mean of 3 mice, read-out: Concentration in mouse liver, MEAN
  concentration at 6 h: 2.37 ng/g
[3]; liver, 25 mg/kg, mouse liver, IP 25mg/kg, 6h, single animals, read-out: Concentration in mouse liver, individual mice 1, 2, 3
  concentration at 6 h: 2.47 ng/g
[3]; liver, 25 mg/kg, mouse liver, IP 25mg/kg, 24h, mean, read-out: Concentration in mouse liver, MEAN
  concentration at 24 h: 1.22 ng/g
[3]; liver, 25 mg/kg, mouse liver, IP 25mg/kg, 24h, single animals, read-out: Concentration in mouse liver, individual mice 1, 2, 3
  concentration at 24 h: 1.22 ng/g
[3]; plasma, 25 mg/kg, C57BL/6 male mice, 25 mg/kg IP, 1 h, read-out: Plasma concentration
  concentration at 1 h: 1830 ± 319 ng/mL
[3]; plasma, 25 mg/kg, C57BL/6 male mice, 25 mg/kg IP, 3 h, read-out: Plasma concentration
  concentration at 3 h: 4.5 ± 3.6 ng/mL
[3]; plasma, 25 mg/kg, mouse plasma, IP 25mg/kg, 1h, mean of 3 mice, read-out: Concentration in mouse plasma, MEAN
  concentration at 1 h: 1830 ng/mL
[3]; plasma, 25 mg/kg, mouse plasma, IP 25mg/kg, 1h, single animals, read-out: Concentration in mouse plasma, individual mice 1, 2, 3
  concentration at 1 h: 1820 ng/mL
[3]; plasma, 25 mg/kg, mouse plasma, IP 25mg/kg, 3h, mean of 3 mice, read-out: Concentration in mouse plasma, MEAN
  concentration at 3 h: 4.47 ng/mL
[3]; plasma, 25 mg/kg, mouse plasma, IP 25mg/kg, 6h, mean (only one mouse above the limit of quantification), read-out: Concentration in mouse plasma, MEAN
  concentration at 6 h: 1.12 ng/mL
[3]; plasma, 25 mg/kg, mouse plasma, IP 25mg/kg, 6h, single animals, limit of quantification 1 ng/mL, read-out: Concentration in mouse plasma, individual mice 1, 2, 3
  concentration at 6 h: 1.12 ng/mL
[3]; plasma, 25 mg/kg, mouse plasma, IP 25mg/kg, 24h, single animals, limit of quantification 1 ng/mL, read-out: Concentration in mouse plasma, individual mice 1, 2, 3
  concentration at 24 h: < 1 ng/mL
[3]; mouse liver, IP 25mg/kg, 1h, single animals, 25 mg/kg
  Concentration in mouse liver, individual mice 1, 2, 3: 766.08 ng/g and 455.81 ng/g and 1128.06 ng/g
[3]; mouse liver, IP 25mg/kg, 3h, single animals, 25 mg/kg
  Concentration in mouse liver, individual mice 1, 2, 3: 2.91 ng/g and 3.26 ng/g
[3]; mouse liver, IP 25mg/kg, 6h, single animals, 25 mg/kg
  Concentration in mouse liver, individual mice 1, 2, 3: 2.85 ng/g and 1.80 ng/g
[3]; mouse plasma, IP 25mg/kg, 1h, single animals, 25 mg/kg
  Concentration in mouse plasma, individual mice 1, 2, 3: 2146.60 ng/mL and 1507.85 ng/mL
[3]; mouse plasma, IP 25mg/kg, 3h, single animals, 25 mg/kg
  Concentration in mouse plasma, individual mice 1, 2, 3: 2.23 ng/mL and 8.63 ng/mL and 2.55 ng/mL
[3]; mouse plasma, IP 25mg/kg, 6h, single animals, limit of quantification 1 ng/mL, 25 mg/kg
  Concentration in mouse plasma, individual mice 1, 2, 3: <1 ng/mL
[3]; mouse plasma, IP 25mg/kg, 24h, single animals, limit of quantification 1 ng/mL
  Concentration in mouse plasma, individual mice 1, 2, 3: <1 ng/mL
